Assays:
γδ T cells [1] = experiment: γδ T cell proliferation rate and viability in PBMC culture depending on finasteride concentration (Example 1); type: cell-based, human; conditions: for γδ T cell proliferation rate increase compared to control (IL-2 and ZA): PBMC from donor, 14-day culture; for proliferation rate of γδ T cells compared to control (in words): 14 days
Description: For 100 cc of blood from a healthy donor collected by a medical professional and placed in a heparin tube, 25 ml of 1×DPBS and 25 ml of the blood were placed in four 50 ml conical tubes. 15 ml of Lymphoprep (Axis Shield, UK) was vertically dispensed into a new 50 ml conical tube carefully to avoid contacting the wall as much as possible, and the diluted blood was slowly added to the top of the 50 ml conical tube containing the Lymphoprep solution along the wall. The conical tube was placed in a centrifuge and centrifuged at 800×g (1,890 rpm) for 20 minutes at room temperature. In the separated four blood layers, the white buffy coat layer between Lymphoprep and plasma layers was collected, transferred to new 50 ml conical tubes (three or four), and centrifuged at 1,500 rpm (500×g) for 10 minutes at room temperature. The cells divided into three or four 50 ml conical tubes were resuspended in 45 ml of 1×DPBS and then collected into one 50 ml conical tube. The cells collected in one tube were centrifuged a total of two times at 1,250 rpm (350×g) for 10 minutes at room temperature. A culture medium was added to a stock of 1.0×10^7 cells to a final volume of 10 ml so that the cell concentration was 1.0×10^6 cells/ml, followed by pipetting two or three times, after which 1.0 ml of the cells was dispensed as day 0 samples to proceed with culture, and the remaining cells were dispensed at 1.0×10^7 cells into frozen vials, stored frozen in a nitrogen tank (LN2 tank), and used by thawing as necessary. The peripheral blood mononuclear cells (PBMC) isolated in 1-1 were continuously treated with 3 μM zoledronic acid and 10^3 IU/ml IL-2 as basic culture components for γδ T cells and with 0.01 nM and 10 nM finasteride as an active ingredient, followed by culture for a total of 14 days, and the activation and proliferation rates of γδ T cells were compared. The frozen peripheral blood mononuclear cells were thawed in a constant temperature water bath at 37° C. and then suspended in 9 ml of OpTmizer medium (Thermo-Fisher Scientific, USA) containing 10% heat inactivated fetal bovine serum (FBS, Gibco, USA). The number of cells was measured, followed by centrifugation at 400×g and 25° C. for 4 minutes. The cell pellets obtained by centrifugation were suspended in 5 ml of complete OpTmizer medium (10% fetal bovine serum+OpTmizer medium, cOpTmizer) and the number of cells was measured, after which the cells were diluted with cOpTmizer medium to a concentration of 1.0×10^6 cells/ml. […] After 2 days of re-induction, the aggregated cells were resuspended using a 1000P micropipette and the number of cells was measured. […] 7 days after the start of culture, the aggregated cells were resuspended using a 1000P micropipette or a 10 ml serological pipette and the number of cells was measured. […]

γδ T cells [2] = experiment: γδ T cell proliferation rate and viability in PBMC culture depending on finasteride treatment period (Example 4); type: cell-based, human
Description: Peripheral blood mononuclear cells (PBMC) were isolated from healthy donors and were cultured for a total of 14 days by continuous treatment with 10 nM finasteride as the active ingredient for each period until day 7, day 10, and day 14 from the start date of culture, in addition to the basic culture components for γδ T cells (3 μM zoledronic acid and 10^3 IU/ml IL-2), and the activation and proliferation rates of γδ T cells were compared. The frozen peripheral blood mononuclear cells were thawed in a constant temperature water bath at 37° C. and then suspended in 9 ml of OpTmizer medium (cOpTmizer, Thermo-Fisher Scientific, USA) containing 10% fetal bovine serum (FBS). The number of cells was measured, followed by centrifugation at 400×g and 25° C. for 4 minutes. The cell pellets obtained by centrifugation were suspended in 5 ml of cOpTmizer medium (Thermo-Fisher Scientific, USA) and the number of cells was measured, after which the cells were diluted with cOpTmizer medium to a concentration of 1.0×10^6 cells/ml. A total of 1.0×10^6 cells was dispensed at 1 ml per well in a 24-well plate. To stimulate and induce differentiation of γδ T cells, 10 nM finasteride, 3 μM zoledronic acid (ZA), and 100 μl of IL-2 (10^3 IU/ml) were added, followed by culture in a CO2 incubator at 37° C. for 4 days. 4 days after the start of culture, the aggregated cells were resuspended using a 1000P micropipette, and the same amount of cOpTmizer culture medium based on the cell culture fluid in culture and 10 nM finasteride and IL-2 (10^3 IU/ml) for re-induction were further added, followed by culture in a CO2 incubator at 37° C. 5 days after the start of culture, the aggregated cells were resuspended using a 1000P micropipette and the number of cells was measured. 10 nM finasteride and IL-2 (10^3 IU/ml) were further added to the same amount of cOpTmizer culture medium based on the cell culture fluid in culture, followed by culture in a CO2 incubator at 37° C. The next day, 10 nM finasteride and IL-2 (10^3 IU/ml) were further added to half of the cOpTmizer culture medium based on the cell culture fluid in culture, followed by culture in a CO2 incubator at 37° C. 7 days after the start of culture, the aggregated cells were resuspended using a 1000P micropipette or a 10 ml serological pipette and the number of cells was measured. The cells were diluted with cOpTmizer culture medium to a concentration of 0.4×10^6 cells/ml based on the cells in culture, after which 10 nM finasteride and IL-2 (10^3 IU/ml) were added to the additional cOpTmizer culture medium, followed by culture in a CO2 incubator at 37° C. for 3 days. 10 days after the start of culture, the aggregated cells were resuspended using a 1000P micropipette or a 10 ml serological pipette and the number of cells was measured. The cells were diluted with cOpTmizer culture medium to a concentration of 0.4×10^6 cells/ml based on the cells in culture, after which 10 nM finasteride and IL-2 (10^3 IU/ml) were added to the additional cOpTmizer culture medium, followed by culture in a CO2 incubator at 37° C. On day 12 after the start of the culture, the same amount of cOpTmizer culture medium based on the cell culture fluid in culture, 10 nM finasteride, and IL-2 (10^3 IU/ml) were added, followed by culture in a CO2 incubator at 37° C. 14 days after the start of culture, the aggregated cells were resuspended using a 1000P micropipette or a 10 ml serological pipette and the number of cells was measured. […]

[3] = 10 nM finasteride continuously until day 7, 14-day culture, FIG. 9

Q: Which results are given for `CC(C)(C)NC(=O)[C@H]1CC[C@H]2[C@@H]3CC[C@H]4NC(=O)C=C[C@]4(C)[C@H]3CC[C@]12C` [Finasteride]?
A: γδ T cell proliferation rate increase compared to control (IL-2 and ZA) (γδ T cells [1]; 0.01 nM finasteride): 1.15 times increase; γδ T cell proliferation rate increase compared to control (IL-2 and ZA) (γδ T cells [1]; 10 nM finasteride): 1.35 times increase; proliferation rate of γδ T cells compared to control (in words) (γδ T cells [1]; female donors, low concentration of finasteride (0.01 nM), FIG. 2): increased; proliferation rate of γδ T cells compared to control (in words) (γδ T cells [1]; male donors, high concentration of finasteride (10 nM), FIG. 1): increased; γδ T cell proliferation rate increase compared to control group (γδ T cells [2]; [3]): about 1.5 times; γδ T cell proliferation rate increase compared to group treated continuously until day 10 or 14 (γδ T cells [2]; [3]): at least 1.1 times; cell viability compared to control group (γδ T cells [2]; continuous treatment with high concentration (10 nM) of finasteride): no significant difference; proportion of γδ T cells (γδ T cells [2]; cultured for 7 days): about 70%; proportion of γδ T cells (γδ T cells [2]; cultured for 10 days): ≥ 90%
